The text below walks through data of publication PMC10351190, “Isolation and identification of active ingredients and biological activity of Dioscorea nipponica Makino” (BMC Complementary Medicine and Therapies, 2023).

Each structure is given as a SMILES string.

The assay addresses T1, α-glucosidase.
T1 construct: gene MAL12
The assay can be described thus: pNPG hydrolysis, absorbance […] nm. It is filed as biochemical. As to conditions: pNPG substrate ([…] stock), pH […] °C, […] phosphate.
`COc1cc2c(ccc3cc(O)cc(OC)c32)cc1O` [compound 4, 3,5-dimethoxyphenanthrene-2,7-diol] displayed an IC50 of 31.4 ± 0.18 µM. With `COc1c(O)cc(C[C@H](O)c2ccccc2)c(C(=O)O)c1O` [compound 1, diosniposide E], the IC50 is greater than 800 µM. The same measure for `COc1cc(C(=O)O)ccc1O` [compound 7, vanillic acid]: greater than 800 µM; for `COC(=O)c1cc(O)c(O)c(O)c1` [compound 6, methyl gallate]: greater than 800 µM. With `O=C(O)c1cc(O)c(O)c(O)c1` [compound 5, gallic acid], the IC50 was greater than 800 µM. Compound `O=C(/C=C/C=C/c1ccc(O)cc1)CCc1ccc(O)cc1` [compound 3, 1,7-bis(4-hydroxyphenyl)hepta-4E,6E-dien-3-one] showed an IC50 of 1.6 ± 0.17 µM. Consider `O=c1cc(-c2ccc(O)cc2)oc2cc(O)cc(O)c12` [compound 9, apigenin], for which the IC50 was greater than 800 µM. The same measure for `COc1cc2c(ccc3c(-c4c(O)cc(OC)c5c4ccc4cc(O)c(OC)cc45)c(O)cc(OC)c32)cc1O` [compound 8, 2,2',7,7'-tetrahydroxy-4,4',6,6'-tetramethoxy-1,1'-biphenanthrenes]: greater than 800 µM. The same measure for `O=C(O)c1c(O)cc(O)cc1C[C@H](O)c1ccccc1` [compound 2, diosniponol C]: greater than 800 µM.

For orientation: IC50 means the concentration that inhibits the measured activity by half. A high value points to weaker potency in that assay.
